System: three-dimensionally cultured human skin model ("EPI-606X")
Test: Skin permeability test
Type: in vitro ADME
Details: 24 hours; for Permeability (%): permeability into the skin model, 0.2% by mass sample solution in PBS (-), pH 7.4, 700 μL, 37° C., skin model extract plus receiver liquid, HPLC, (A/1400)×100; for permeability compared with compound (9)-101 / permeability compared with sodium pantothenate: skin model, comparison in words
Excerpt: The compound (1)-301, the compound (1)-302, the compound (9)-101, and sodium pantothenate (manufactured by Tokyo Kasei Kogyo Co., Ltd., the compound represented by the following formula) were respectively dissolved in Dubecco's PBS (−), and the pH of a solution was adjusted to 7.4 using a sodium hydroxide aqueous solution or hydrochloric acid, to obtain a solution having a concentration of 0.2% by mass as a sample solution. A three-dimensionally cultured human skin model (“EPI-606X”, manufactured by KURABO INDUSTRIES LTD.) was set such that the lower portion thereof was immersed in a 6-well plate containing the PBS solution (1 mL), and was allowed to stand in an incubator for 30 minutes under conditions of 37° C. at a carbon dioxide concentration of 5%. Next, the PBS solution was replaced with an HBSS (−) solution (1 mL) (hereinafter, referred to as a “receiver liquid”), the sample solution (700 μL) obtained in the above-described manner was added to the skin model, and the skin model was allowed to stand in an incubator under conditions of 37° C. at a carbon dioxide concentration of 5%. After the skin model was allowed to stand for 24 hours, the sample solution on the skin model was removed using a pipette, the skin model was taken out from the well and washed with the PBS (−) solution. Subsequently, a slice was cut from the skin model and put into a 2 mL tube. Methanol (1 mL) and stainless steel beads (manufactured by Tomy Company, Ltd., diameter of 5.5 mm) were added to the tube, and the slice was crushed under conditions of 2000 rpm for 10 seconds ten times using MULTI BEADS SHOCKER (manufactured by Yasui Kikai Corporation). After the slice was crushed, the obtained solution was transferred to a 2 mL Eppendorf tube and centrifuged at 12000 rpm for 5 minutes, the supernatant was filtered using a filter (pore size of 0.22 μm), thereby obtaining a skin model extract. Next, the compound (1)-301, the compound (1)-302, the compound (9)-101, and sodium pantothenate in the skin model extract and the receiver liquid were quantified by analyzing each of the compounds (test substances) using HPLC described above, and a total value A (μg) of these quantitative values was calculated. Further, the permeability into the skin model (%) of each of the compound (1)-301 (Example 1), the compound (1)-302 (Example 2), the compound (9)-101 (Reference Example 1), and sodium pantothenate (Comparative Example 1) added to the skin model was calculated according to Equation (i). Permeability (%)=(A/1400)×100 (i)

Permeability (%)	permeability compared with compound (9)-101	permeability compared with sodium pantothenate	Compound
41 ± 4.7	clearly higher permeability	clearly higher permeability	CCCCCCCCCCCCCCCC(=O)OCC(C)(C)C(O)C(=O)NCCC(=O)O (stereo not drawn) [Compound (1)-301, 3-[N-(4-hexadecanoyloxy-3,3-dimethyl-2-hydroxybutyryl)amino]propionic acid]
44 ± 2.7	clearly higher permeability	clearly higher permeability	CCCCCCCCC(CCCCCC)C(=O)OCC(C)(C)C(O)C(=O)NCCC(=O)O (stereo not drawn) [Compound (1)-302, 3-[N-(4-(2-hexyldecanoyl)oxy-3,3-dimethyl-2-hydroxybutyryl)amino]propionic acid]
29 ± 0.8		clearly higher permeability	CCCCCCCCCC(=O)OCC(C)(C)C(O)C(=O)NCCC(=O)O (stereo not drawn) [Compound (9)-101, 3-[N-(4-decanoyloxy-3,3-dimethyl-2-hydroxybutyryl)amino]propionic acid, reference compound]
18 ± 0.4			CC(C)(CO)[C@@H](O)C(=O)NCCC(=O)[O-].[Na+] [Sodium pantothenate, sodium pantothenate, reference compound]
